Assay results from patent publication US12422438B2, “Means and methods for single molecule peptide sequencing” (VIB VZW, priority 2017, dated 2025).

T1: T. aquaticus aminopeptidase T (Thermus aquaticus, UniProt P23341)
T1 construct: 6xHis (C); made in house; host or cells: E. coli BL21(DE3), pET24b(+)
T1 sequence (P23341 with tags, fused parts or gaps): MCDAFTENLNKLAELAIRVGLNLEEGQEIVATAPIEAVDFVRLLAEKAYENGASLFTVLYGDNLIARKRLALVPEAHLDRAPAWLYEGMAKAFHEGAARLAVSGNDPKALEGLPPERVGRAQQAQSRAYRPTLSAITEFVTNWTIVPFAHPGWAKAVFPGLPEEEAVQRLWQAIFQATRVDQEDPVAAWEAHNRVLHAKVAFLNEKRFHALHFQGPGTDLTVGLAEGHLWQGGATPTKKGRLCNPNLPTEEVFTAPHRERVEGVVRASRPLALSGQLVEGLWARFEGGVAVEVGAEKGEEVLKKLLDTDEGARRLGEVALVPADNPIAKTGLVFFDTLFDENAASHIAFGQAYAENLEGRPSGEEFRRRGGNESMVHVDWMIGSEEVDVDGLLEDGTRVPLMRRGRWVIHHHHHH


What was measured:
[1] = target: T1, T. aquaticus aminopeptidase T; format: biochemical; conditions: 40° C.; for Km / kcat: PBS; for Km: enzyme 2.0625 μM, substrate 0.0625-2 mM, Lineweaver-Burke plot; for kcat: kcat=Vmax/[E]; for on-time (min) / on-time (s): calculated as 1/kcat
Description: (§1) The kinetic parameters from T. aquaticus aminopeptidase T for cleaving different amino acid substrates was determined with a p-nitroanilide assay. Substrates consist of an N-terminal amino acid with a p-nitroanilide attached to its C-terminus. Upon amino acid cleavage, the free nitroanilide can be monitored by measuring the absorbance at 405 nm. T. aquaticus aminopeptidase T as depicted in SEQ ID No 8 was added in a concentration of 2.0625 μM (in PBS) to different concentrations of amino acid p-nitroanilide substrate (0.0625, 0.125, 0.25, 0.5, 1 and 2 mM in PBS). Subsequently p-nitroanilide release was continuously measured at 40° C. with a FLUOstar Omega microplate reader (MBG LabTech). From this, the initial velocity of the reaction at each substrate concentration was derived (v0). For each amino acid, a Lineweaver-Burke plot was generated from which the reaction Vmax and enzyme-substrate KM was determined. The turnover number, kcat, was calculated from the Vmax and the enzyme concentration (kcat=Vmax/[E]). The enzyme on-time value was then calculated by taking the reciprocal from the kcat value. The “on-time” values as shown in Table 1 are calculated as 1/kcat and as such is the overall time needed for an enzyme solution on the peptide until catalysis occurs.
(§2) The assays were performed at 40° C. below the enzyme's temperature optimum. Working more closely to the optimal temperature of 70° C. speeds up the reaction speed (kcat and enzyme on-time). […] The results as shown here not only validate the utility of the aminopeptidase as disclosed herein but also underpin and substantiate the methods and uses disclosed in current application.

[2] = Spontaneous Edman degradation (SPITC-induced cleavage) of amino acid p-nitroanilide substrates; conditions: 30 min at 40° C., 300 mM triethanolamine in 50% acetonitrile (pH 9)
Description: FIG. 16. Spontaneous Edman degradation of different amino acid p-nitroanilide substrates. A. Sulfophenyl isothiocyanate (SPITC, 15 mM) and substrate (1.5 mM) were incubated for 30 min at 40° C. in 300 mM triethanolamine in 50% ACN, after which the released p-nitroanilide was quantified by measuring the absorbance at 405 nm. B. Time-kinetic measurement of SPITC-induced amino acid p-nitroanilide substrate cleavage.
Importantly, this spontaneous cleavage activity is also observed under conditions that are not typically used during the cleavage step in the classic Edman degradation reaction. In classic Edman degradation. ITC coupling is achieved under mild alkaline conditions (pyridine, trimethylamine, N-methylpiperidine) and amino acid cleavage under acidic conditions (trifluoroacetic acid). Here both ITC coupling and amino acid cleavage is achieved under mild alkaline conditions (triethanolamine).

[3] = target: T1, T. aquaticus aminopeptidase T; experiment: Aminopeptidase assay with different amino acid p-nitroanilide substrates at 40° C. and 80° C.; format: biochemical; conditions: 2 h, PBS, substrate 1.5 mM
Description: FIG. 11. Aminopeptidase assay with different amino acid p-nitroanilide substrates. Enzyme and substrate (1.5 mM) were incubated for 2 h at 40° C. or 80° C. in PBS, after which the released p-nitroanilide was quantified by measuring the absorbance at 405 nm.
As described herein and in line with the invention described in current application, the activity differs between different amino acids. At 80° C., the panel of amino acid substrates can be roughly divided in fast-cleaved (L, M, Y, R, F) and slow-cleaved (D, P) substrates. However, at 40° C. it seems like the panel is divided in fast-cleaved (Y, R) and slow-cleaved (D, P), and substrates that lie in between (L, M, F). […] Finally, TagAPT is not only active in the p-nitroanilide assay. […] The N-terminal amino acid from peptides with proline at the second position is not easily cleaved since peptide bonds adjacent to the amino acid proline are resistant to cleavage by most peptidases (Iyver et al. 2015 FEBS Open Bio. 2015 Apr. 2; 5:292-302). In contrast to what Is stated in Minagawa et al (1988 Agricultural and Biological Chemistry 52:1755-1763) we show here that T. aquaticus aminopeptidase T can cleave N-terminal amino acids even when proline is at the second position. This surprising finding greatly enhances the generic use of Tag-APT in the method and uses disclosed in current application and in single molecule peptide sequencing in general.

[4] = substrate: CC(C)C[C@H](N)C(=O)Nc1ccc([N+](=O)[O-])cc1; experiment: purified protein, by the assay type; format: biochemical; conditions: other: 40° C., PBS, enzyme 2.0625 μM, substrate 0.0625-2 mM, Lineweaver-Burke plot
Description: as §1, §2

Row | Molecule | Km [1] | kcat [1] | on-time (min) [1] | on-time (s) [1] | cleavage speed category of substrate (endpoint activity measurement) [2] | cleavage speed category of substrate ([3]; 40° C.) | cleavage speed category of substrate ([3]; 80° C.) | Km [4] | kcat [4] | kcat/Km [4]
1 | C[C@H](N)C(=O)Nc1ccc([N+](=O)[O-])cc1 [Ala] | 736 µM | 0.01167 s⁻¹ | 1.4 min | 86 s |  |  |  |  |  | 
2 | NC(N)=NCCC[C@H](N)C(=O)Nc1ccc([N+](=O)[O-])cc1 [Arg] | 415 µM | 0.01638 s⁻¹ | 1.0 min | 61 s | fast-cleaved | fast-cleaved | fast-cleaved |  |  | 
3 | N[C@@H](CC(=O)O)C(=O)Nc1ccc([N+](=O)[O-])cc1 [D] |  |  |  |  | slow-cleaved | slow-cleaved | slow-cleaved |  |  | 
4 | N[C@@H](Cc1ccccc1)C(=O)Nc1ccc([N+](=O)[O-])cc1 [F] |  |  |  |  | fast-cleaved | in between | fast-cleaved |  |  | 
5 | NCC(=O)Nc1ccc([N+](=O)[O-])cc1 [Gly] | 765 µM | 0.00307 s⁻¹ | 5.4 min | 326 s |  |  |  |  |  | 
6 | CC(C)C[C@H](N)C(=O)Nc1ccc([N+](=O)[O-])cc1 [Leu, L-leucine-p-nitroanilide] |  |  | 6.5 min | 390 s | fast-cleaved | in between | fast-cleaved |  |  | 
7 | NCCCC[C@H](N)C(=O)Nc1ccc([N+](=O)[O-])cc1 [Lys] | 193 µM | 0.00148 s⁻¹ | 11.3 min | 677 s |  |  |  |  |  | 
8 | CSCC[C@H](N)C(=O)Nc1ccc([N+](=O)[O-])cc1 [Met] | 99 µM | 0.00471 s⁻¹ | 3.5 min | 212 s | fast-cleaved | in between | fast-cleaved |  |  | 
9 | O=C(Nc1ccc([N+](=O)[O-])cc1)[C@@H]1CCCN1 [Pro] | 546 µM | 0.00198 s⁻¹ | 8.4 min | 504 s | slow-cleaved | slow-cleaved | slow-cleaved |  |  | 
10 | N[C@@H](Cc1ccc(O)cc1)C(=O)Nc1ccc([N+](=O)[O-])cc1 [Tyr] | 211 µM | 0.00707 s⁻¹ | 2.4 min | 142 s | fast-cleaved | fast-cleaved | fast-cleaved |  |  | 
11 | CC(C)[C@H](N)C(=O)Nc1ccc([N+](=O)[O-])cc1 [Val] | 192 µM | 0.00138 s⁻¹ | 12.1 min | 727 s |  |  |  |  |  | 
12 | T. aquaticus aminopeptidase T (Thermus aquaticus) (protein, 6xHis (C); made in house; host or cells: E. coli BL21(DE3), pET24b(+)) MCDAFTENLNKLAELAIRVGLNLEEGQEIVATAPIEAVDFVRLLAEKAYENGASLFTVLYGDNLIARKRLALVPEAHLDRAPAWLYEGMAKAFHEGAARLAVSGNDPKALEGLPPERVGRAQQAQSRAYRPTLSAITEFVTNWTIVPFAHPGWAKAVFPGLPEEEAVQRLWQAIFQATRVDQEDPVAAWEAHNRVLHAKVAFLNEKRFHALHFQGPGTDLTVGLAEGHLWQGGATPTKKGRLCNPNLPTEEVFTAPHRERVEGVVRASRPLALSGQLVEGLWARFEGGVAVEVGAEKGEEVLKKLLDTDEGARRLGEVALVPADNPIAKTGLVFFDTLFDENAASHIAFGQAYAENLEGRPSGEEFRRRGGNESMVHVDWMIGSEEVDVDGLLEDGTRVPLMRRGRWVIHHHHHH |  |  |  |  |  |  |  | 92 µM | 0.00256 s⁻¹ | 27.9 M⁻¹ s⁻¹
